≈ marks a conversion by molar mass, not a printed value. Where two headings read alike, the source gives them in different places.
Tests used:
[1] = test system: L. infantum promastigotes (Strain MHOM/BR/70/BH46); assay: Anti-promastigote effect, Neubauer chamber counting; type: cell-based, Leishmania infantum; details: 72 h incubation, read-out: L. infantum IC50PRO
Method: (§1) The promastigote cultures of L. infantum (Strain MHOM/BR/70/BH46) and L. amazonensis (Strain MHOM/BR/PH8) were kept in Schneider medium (Sigma-Aldrich, St. Louis, MO, USA) supplemented with 20% fetal bovine serum (FBS) and 1% streptomycin/penicillin in a B.O.D. incubator (J. Prolab, model JP. 100 LBCM/CPAM) at 26 °C. The promastigote strains were used in the exponential growth phase in all stages for experimental purposes.
(§2) The Neubauer chamber method was used to assess the inhibitory concentrations of the synthesized spiro-acridines capable of eliminating 50% of the promastigotes in cultures of L. amazonensis and L. infantum (IC50) strains. Promastigotes from both species were collected, counted, and diluted in Schneider’s medium (Sigma-Aldrich, St. Louis, MO, USA) supplemented with 20% fetal bovine serum (FBS) at a final concentration of 1 × 10^6 cells/mL. The evaluated promastigotes were then exposed to different concentrations of the tested compounds (10, 5, 2.5, 1.25, and 0.625 μg/mL). The positive control used the commercial drug Amphotericin B®, while the negative control consisted of promastigotes incubated in Schneider’s medium alone. After 72 h of incubation at 25 °C, culture growth was observed by counting the viable cells using a Neubauer chamber and calculated using the following Equation (1): No. Leishmania/mL = No. of cells counted × No. of Neubauer chamber(1) quadrants × the dilution used × 10^4 (Neubauer chamber correction factor)
(§3) The concentration parameter that inhibits 50% of parasite growth (IC50) was used to estimate the growth inhibition of the promastigote species of Leishmania sp. Thus, IC50 was determined by linear regression analysis with SPSS 8.0 software for Windows. Each test was performed in two independent experiments, with different cultures and in technical triplicate.

[2] = test system: L. amazonensis promastigotes (Strain MHOM/BR/PH8); assay: as above; type: cell-based, Leishmania amazonensis; details: 72 h incubation, read-out: L. amazonensis IC50PRO
Method: as §1, §2, §3

[3] = test system: L. amazonensis axenic amastigotes; assay: Anti-amastigote effect on axenic amastigotes, MTT; type: cell-based, Leishmania amazonensis
Method: The amastigote forms of L. amazonensis were maintained under cryopreservation until they were transferred to an NNN medium (Novy–MacNeal–Nicolle) and incubated at 26 °C until the parasites reached the log growth phase. Subsequently, the suspension was transferred to Schneider culture medium (Sigma-Aldrich, St. Louis, MO, USA), supplemented with 20% inactivated fetal bovine serum and 0.2% gentamicin sulfate at 26 °C, causing the parasites to return to the log growth phase. The cultures were then maintained at 37 °C, producing a growth curve and the formation of the axenic amastigote strains.
The concentrations of the compounds AMTAC-02 and ACMD-03 capable of eliminating 50% of the cells in the cultures of L. amazonensis amastigotes (IC50) were determined using the MTT [3-(4,5-dimethylthiazol-2-yl)-2,5-diphenyltetrazolium bromide] (Sigma-Aldrich) reagent. In a 96-well plate, the assay was initiated by diluting both compounds to concentrations of 2, 4, 8, 16, and 32 μg/mL and 2.0 × 10^5 axenic amastigotes per well. The plates were incubated at 37 °C for 24 h. Then, 10 μL of MTT was added per well, and the cultures were re-incubated for 4 h. Subsequently, 50 μL of dimethyl sulfoxide was added to each well to solubilize the formazan crystals formed. The absorbances were measured using a SpectraMAX GeminiXS plate spectrophotometer (Molecular Devices LLC) at a wavelength of 570 nm. The negative control consisted of untreated cells, while the positive control was assessed by incubating the axenic amastigotes with the reference drug Amphotericin B® [13].

[4] = test system: human red blood peripheral cells (O+); assay: Hemocompatibility (hemolysis) in red blood cells; type: cell-based; details: 1 h at 37 °C
Method: The hemocompatibility of the spiro-acridine derivatives was determined using human red blood peripheral cells (O+) from healthy adults. The erythrocytes were diluted in phosphate-buffered saline (PBS) to a concentration of 5% in an 80 µL suspension and subsequently incubated with 20 µL of different concentrations of spiro-acridine derivatives and Amphotericin B® (400, 200, 100, 50, 25, 12,5, 6,25 and 3,12 μg/mL). Afterward, the samples were incubated for 1 h at 37 °C in a B.O.D incubator, and the reaction was stopped by adding 200 μL of PBS (1.5 mM KH2PO4, 8.1 mM Na2HPO4, 136.9 mM NaCl, and 2.6 mM KCl, pH 7.2). The samples were centrifuged at 2000 rpm for 10 min, at room temperature. The supernatants were collected and subjected to spectrophotometry using a spectrophotometer (model Biosystems ELx800, Curitiba, PR, Brazil) at 540 nm. The hemolysis percentage was determined as [(Abssam − Abscon)/(Abstot − Abscon) × 100], where Abssam refers to the absorbance of the sample, Abscon to the absorbance of the blank control (without compounds), and Abstot to the absorbance of total hemolysis (obtained by replacing the sample solution with an equal volume of Milli-Q water). The results were expressed as average hemolytic concentration (HC50), considering the positive control as 100% hemolysis.

[5] = Cytotoxic effect in J774 macrophage cultures, MTT; type: cell-based; details: mouse, J774A.1 macrophages, read-out: CC50 (50% cytotoxic concentration in J774 macrophage)
Method: J774A.1 macrophages (ATCC TIB-67) were kept cryopreserved in a Falcon tube containing 5 mL of DMEM (Dulbecco’s modified Eagle medium) culture medium (Gibco®), supplemented with 10% inactivated fetal bovine serum, 1% non-essential amino acids, and 1% gentamicin sulfate. The tube was centrifuged at 200 rpm for 10 min. Afterward, the supernatant was discarded, and the cells were resuspended in the culture medium and transferred to a culture bottle kept in an incubator at 37 °C with 5% CO2. The assays were carried out in triplicate using a 96-well plate to evaluate the cytotoxic effect of the selected spiro-acridine compounds on J774 macrophage cultures. The compounds were diluted and seeded at predetermined concentrations (32, 16, 8, 4, and 2 μg/mL), parallel to the distribution of 1.0 × 10^5 J774 macrophages per well. The plate was incubated for two hours in a 5% CO2 incubator at 37 °C. Only the cells were incubated in the negative control without the tested molecules. In contrast, the positive control was performed by incubating the macrophages with the commercial drug Amphotericin B®. Later, 10 μL of the MTT reagent was added per well, and the cultures were re-incubated for 4 h. Finally, 50 μL of DMSO was added to each well, and the absorbance was read on a SpectraMAX GeminiXS plate spectrophotometer (Molecular Devices LLC, San Jose, CA, USA) at a wavelength of 570 nm. […]

[6] = test system: L. brasiliensis promastigotes; set-up: method as in PMID 33168414; details: cited from earlier work
[7] = test system: L. brasiliensis axenic amastigotes; set-up: method as in PMID 33168414; details: cited from earlier work
[8] = test system: L. infantum promastigote forms; set-up: method as in PMID 34311084; details: cited from earlier work
[9] = test system: L. amazonensis promastigotes; set-up: method as in PMID 33765552; details: cited from earlier work

Question: Which IC50 ([1]; Leishmania infantum) does the source give for `C[C@@H]1[C@H](O)[C@@H](C)/C=C/C=C/C=C/C=C/C=C/C=C/C=C/[C@H](O[C@@H]2O[C@H](C)[C@@H](O)[C@H](N)[C@@H]2O)C[C@@H]2O[C@](O)(C[C@@H](O)C[C@@H](O)[C@H](O)CC[C@@H](O)C[C@@H](O)CC(=O)O[C@H]1C)C[C@H](O)[C@H]2C(=O)O` [ANFO B, Amphotericin B, reference compound] here?
Answer: 0.05 µM

Question: And the IC50 ([2]; Leishmania amazonensis)?
Answer: 1.53 µM

Question: And the “SI (selectivity index)” value ([3]; J774 macrophage CC50 versus L. amazonensis axenic amastigote IC50AMA)?
Answer: 2.8

Question: And the IC50 ([3]; Leishmania amazonensis, 24 h, L. amazonensis axenic amastigotes, MTT)?
Answer: 1.08 µM

Question: What about the “HC50 (concentration capable of promoting 50% hemolysis)” value [4] of the same molecule?
Answer: 24.25 µM

Question: And the CC50 at 2 h [5]?
Answer: 3.09 µM

Question: Which IC50 ([1]; Leishmania infantum) does the source give for `N#CC1=CC2(c3ccccc3Nc3ccccc32)N(c2ccccc2)C1=O` [ACMD-01, (E)5′-oxo-1′-phenyl-1′, 5′-dihydro-10H-spiro{acridine-9,2′-pyrrole]-4′-carbonitrile] here?
Answer: 3.9 µM

Question: What about the “HC50 (concentration capable of promoting 50% hemolysis)” value [4] of the same molecule?
Answer: >400 µM

Question: With cordiaquinone E [CORe] as the molecule, how does the IC50 [6] read?
Answer: 4.5 ± 0.3 µM

Question: What about the IC50 [7] of the same molecule?
Answer: 2.89 ± 0.11 µM

Question: With `N#CC1=CC2(c3ccccc3Nc3ccccc32)N(/N=C/c2ccc(Cl)cc2)C1=O` [AMTAC-06, (E)1-(4-chlorobenzylideneamino)-5-oxo-1,5-dihydro-10H-spiro[acridine-9,2-pyrrole]-4-carbonitrile] as the molecule, how does the IC50 [1] read?
Answer: 13.8 µM

Question: What about the IC50 [2] of the same molecule?
Answer: 0.75 µM

Question: And the “HC50 (concentration capable of promoting 50% hemolysis)” value [4]?
Answer: >400 µM

Question: For `N#CC1=CC2(c3ccccc3Nc3ccccc32)N(/N=C/c2ccccc2)C1=O` [AMTAC-01, (E)-1′-(benzylideneamino)-5′-oxo-1′,5′-dihydro-10H-spiro[acridine-9,2′-pyrrole]-4′-carbonitrile], which IC50 ([1]; Leishmania infantum) is on record?
Answer: 6.27 µM

Question: What about the IC50 ([2]; Leishmania amazonensis) of the same molecule?
Answer: 1.23 µM

Question: And the “HC50 (concentration capable of promoting 50% hemolysis)” value [4]?
Answer: >400 µM

Question: What about the “IC50 against the promastigote forms” value [8] of the same molecule?
Answer: 2.039 µg/mL (≈ 5.42 µM)

Question: Which IC50 [9] does the source give for `CC1=CC(=O)[C@H]2C(C)(C)CCC[C@]2(C)[C@@]1(O)CCc1ccoc1` [SOL, solidagenone] here?
Answer: 34.5 µM

Question: Which IC50 [1] does the source give for `COc1ccc(N2C(=O)C(C#N)=CC23c2ccccc2Nc2ccccc23)cc1` [ACMD-06, (E)1′-(4-methoxyphenyl)-5′-oxo-1′, 5′-dihydro-10H-spiro{acridine-9,2′-pyrrole]-4′-carbonitrile] here?
Answer: 3.5 µM

Question: What about the IC50 [2] of the same molecule?
Answer: 235 µM

Question: What about the “HC50 (concentration capable of promoting 50% hemolysis)” value [4] of the same molecule?
Answer: >400 µM

— publication PMC12195250, “Synthesis, Biological Evaluation, Molecular Dynamics, and QM-MM Calculation of Spiro-Acridine Derivatives Against Leishmaniasis” (Microorganisms, 2025)
